Laboratory results from patent US12577245B2, “Sulfonyl benzamide derivatives as Bcl-2 inhibitors” (ASCENTAGE PHARMA (SUZHOU) CO., LTD., priority 2021, dated 2026).

Assays:
RS4; 11Bcl-2-G101V cells = test: CellTiter-Glo (CTG) cell viability assay in RS4;11-Bcl-2-G101V cells; format: cell-based; details: 72 h, 10% FBS, 3 days
In short: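 Luminescent ATP read-out (CellTiter-Glo) after 3-day compound treatment at 37 °C gave viability relative to vehicle, from which IC50 was fitted. Mutant Bcl-2 RS4;11 cells were seeded at 10000 per well and rested 4 h before dosing.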

MV-4-11 cells = test: CCK-8 cell viability assay in MV-4-11 cells; format: cell-based; details: Homo sapiens, MV4-11, 72 h, 10% FBS, 3 days
In short: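 IC50 values come from vehicle-normalized CCK-8 absorbance at 450 nm, read 1–4 h after reagent addition. Before that, MV-4-11 cells seeded at 20000 per well were cultured 3 days at 37 °C with a compound dilution series.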

Bcl-2 WT = Bcl-2 WT (Homo sapiens, UniProt P10415); test: Bcl-2 WT inhibition, fluorescence polarization (Flu-BIM tracer) binding assay; details: FP; 20 nM Bcl2, 5 nM Flu-BIM, 1 h incubation; read-out: Bcl-2 w.t. (FP)
Sequence of Bcl-2 WT (P10415 whole entry): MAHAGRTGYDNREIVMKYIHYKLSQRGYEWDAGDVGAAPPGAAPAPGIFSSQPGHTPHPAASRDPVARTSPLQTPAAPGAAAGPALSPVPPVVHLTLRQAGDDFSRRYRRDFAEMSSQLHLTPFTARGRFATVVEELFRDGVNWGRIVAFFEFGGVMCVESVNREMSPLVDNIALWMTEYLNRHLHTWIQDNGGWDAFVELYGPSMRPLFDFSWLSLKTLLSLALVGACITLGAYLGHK

SMILES | IC50 (RS4; 11Bcl-2-G101V cells) | IC50 (MV-4-11 cells) | IC50 (Bcl-2 WT)
CC1(C)CCC(CN2CCN(c3ccc(C(=O)NS(=O)(=O)c4ccc(NC[C@H]5COCCO5)c([N+](=O)[O-])c4)c(Oc4cnc5[nH]ccc5c4)c3)CC2)=C(c2cc(CN3CCOCC3)cs2)C1 [Example 22, (S)—N-((4-(((1,4-dioxan-2-yl)methyl)amino)-3-nitrophenyl)sulfonyl)-2-((1H-pyrrolo[2,3-b]pyridin-5-yl)oxy)-4-(4-((4,4-dimethyl-2-(4-(morpholinomethyl)thiophen-2-yl)cyclohex-1-en-1-yl)methyl)piperazin-1-yl)benzamide] | 440 nM | 83 nM | 25.4 nM
CC(C)c1csc(C2=C(CN3CCN(c4ccc(C(=O)NS(=O)(=O)c5ccc(NCC6CCOCC6)c([N+](=O)[O-])c5)c(Oc5cnc6[nH]ccc6c5)c4)CC3)CCC(C)(C)C2)c1 [Example 8, 2-((1H-pyrrolo[2,3-b]pyridin-5-yl)oxy)-4-(4-((2-(4-isopropylthiophen-2-yl)-4,4-dimethylcyclohex-1-en-1-yl)methyl)piperazin-1-yl)-N-((3-nitro-4-(((tetrahydro-2H-pyran-4-yl)methyl)amino)phenyl)sulfonyl)benzamide] | 1440 nM | 21 nM | 17.7 nM
CC1(C)CCC(CN2CCN(c3ccc(C(=O)NS(=O)(=O)c4ccc(NCC5CCOCC5)c([N+](=O)[O-])c4)c(Oc4cnc5[nH]ccc5c4)c3)CC2)=C(c2csc(C(F)(F)F)c2)C1 [Example 3, 2-((1H-pyrrolo[2,3-b]pyridin-5-yl)oxy)-4-(4-((4,4-dimethyl-2-(5-(trifluoromethyl)thiophen-3-yl)cyclohex-1-en-1-yl)methyl)piperazin-1-yl)-N-((3-nitro-4-(((tetrahydro-2H-pyran-4-yl)methyl)amino)phenyl)sulfonyl)benzamide] | 3800 nM | 214 nM | 27.7 nM
CC1(C)CCC(CN2CCN(c3ccc(C(=O)NS(=O)(=O)c4ccc(NC[C@H]5COCCO5)c([N+](=O)[O-])c4)c(Oc4cnc5[nH]ccc5c4)c3)CC2)=C(c2cc(CN3CCC(N4CCOCC4)CC3)cs2)C1 [Example 28, (S)—N-((4-(((1,4-dioxan-2-yl)methyl)amino)-3-nitrophenyl)sulfonyl)-2-((1H-pyrrolo[2,3-b]pyridin-5-yl)oxy)-4-(4-((4,4-dimethyl-2-(4-((4-morpholinopiperidin-1-yl)methyl)thiophen-2-yl)cyclohex-1-en-1-yl)methyl)piperazin-1-yl)benzamide] | 1210 nM | 276 nM | 20.7 nM
CC1(C)CCC(CN2CCN(c3ccc(C(=O)NS(=O)(=O)c4ccc(NC[C@H]5CC[C@](C)(O)CC5)c([N+](=O)[O-])c4)c(Oc4cnc5[nH]ccc5c4)c3)CC2)=C(c2cc(-c3ccc(C(F)F)cc3)cs2)C1 [Example 49, 2-((1H-pyrrolo[2,3-b]pyridin-5-yl)oxy)-4-(4-((2-(4-(4-(difluoromethyl)phenyl)thiophen-2-yl)-4,4-dimethylcyclohex-1-en-1-yl)methyl)piperazin-1-yl)-N-((4-((((1r,4r)-4-hydroxy-4-methylcyclohexyl)methyl)amino)-3-nitrophenyl)sulfonyl)benzamide] | 420 nM | 9 nM | 38.4 nM
CC1(C)CCC(CN2CCN(c3ccc(C(=O)NS(=O)(=O)c4ccc(NC[C@H]5CC[C@@](C)(O)CC5)c([N+](=O)[O-])c4)c(Oc4cnc5[nH]ccc5c4)c3)CC2)=C(c2cc(CN3CCOCC3)cs2)C1 [Example 23, 2-((1H-pyrrolo[2,3-b]pyridin-5-yl)oxy)-4-(4-((4,4-dimethyl-2-(4-(morpholinomethyl)thiophen-2-yl)cyclohex-1-en-1-yl)methyl)piperazin-1-yl)-N-((4-((((1s,4s)-4-hydroxy-4-methylcyclohexyl)methyl)amino)-3-nitrophenyl)sulfonyl)benzamide] | 930 nM | 180 nM | 15.7 nM
CC1(C)CCC(CN2CCN(c3ccc(C(=O)NS(=O)(=O)c4ccc(NCC5CCOCC5)c([N+](=O)[O-])c4)c(Oc4cnc5[nH]ccc5c4)c3)CC2)=C(c2cc(-c3ccccc3)cs2)C1 [Example 34, 2-((1H-pyrrolo[2,3-b]pyridin-5-yl)oxy)-4-(4-((4,4-dimethyl-2-(4-phenylthiophen-2-yl)cyclohex-1-en-1-yl)methyl)piperazin-1-yl)-N-((3-nitro-4-(((tetrahydro-2H-pyran-4-yl)methyl)amino)phenyl)sulfonyl)benzamide] | 1460 nM | 18 nM | 41.1 nM
CC1(C)CCC(CN2CCN(c3ccc(C(=O)NS(=O)(=O)c4ccc(NC[C@H]5CC[C@](C)(O)CC5)c([N+](=O)[O-])c4)c(Oc4cnc5[nH]ccc5c4)c3)CC2)=C(c2cc(-c3ccc(C(O)(C(F)(F)F)C(F)(F)F)cc3)cs2)C1 [Example 60, 2-((1H-pyrrolo[2,3-b]pyridin-5-yl)oxy)-4-(4-((2-(4-(4-(1,1,1,3,3,3-hexafluoro-2-hydroxypropan-2-yl)phenyl)thiophen-2-yl)-4,4-dimethylcyclohex-1-en-1-yl)methyl)piperazin-1-yl)-N-((4-((((1r,4r)-4-hydroxy-4-methylcyclohexyl)methyl)amino)-3-nitrophenyl)sulfonyl)benzamide] | 3410 nM | 303 nM | 20.4 nM
CC1(C)CCC(CN2CCN(c3ccc(C(=O)NS(=O)(=O)c4ccc(NC[C@H]5COCCO5)c([N+](=O)[O-])c4)c(Oc4cnc5[nH]ccc5c4)c3)CC2)=C(c2cc(NC(=O)c3ccccc3)cs2)C1 [Example 18, (S)—N-((4-(((1,4-dioxan-2-yl)methyl)amino)-3-nitrophenyl)sulfonyl)-2-((1H-pyrrolo[2,3-b]pyridin-5-yl)oxy)-4-(4-((2-(4-benzamidothiophen-2-yl)-4,4-dimethylcyclohex-1-en-1-yl)methyl)piperazin-1-yl)benzamide] | 2040 nM | 323 nM | 37.5 nM
CC(C)c1ccccc1-c1csc(C2=C(CN3CCN(c4ccc(C(=O)NS(=O)(=O)c5ccc(NC[C@H]6COCCO6)c([N+](=O)[O-])c5)c(Oc5cnc6[nH]ccc6c5)c4)CC3)CCC(C)(C)C2)c1 [Example 39, (S)—N-((4-(((1,4-dioxan-2-yl)methyl)amino)-3-nitrophenyl)sulfonyl)-2-((1H-pyrrolo[2,3-b]pyridin-5-yl)oxy)-4-(4-((2-(4-(2-isopropylphenyl)thiophen-2-yl)-4,4-dimethylcyclohex-1-en-1-yl)methyl)piperazin-1-yl)benzamide] | 2310 nM | 260 nM | 31.6 nM
CC1(C)CCC(CN2CCN(c3ccc(C(=O)NS(=O)(=O)c4ccc(NC[C@H]5COCCO5)c([N+](=O)[O-])c4)c(Oc4cnc5[nH]ccc5c4)c3)CC2)=C(c2cc(CN3CCN4CCOC[C@H]4C3)cs2)C1 [Example 30, N-((4-((((S)-1,4-dioxan-2-yl)methyl)amino)-3-nitrophenyl)sulfonyl)-2-((1H-pyrrolo[2,3-b]pyridin-5-yl)oxy)-4-(4-((2-(4-(((R)-hexahydropyrazino[2,1-c][1,4]oxazin-8(1H)-yl)methyl)thiophen-2-yl)-4,4-dimethylcyclohex-1-en-1-yl)methyl)piperazin-1-yl)benzamide] | 1440 nM | 564 nM | 23.6 nM
CC1(C)CCC(CN2CCN(c3ccc(C(=O)NS(=O)(=O)c4ccc(NC[C@H]5CC[C@](C)(O)CC5)c([N+](=O)[O-])c4)c(Oc4cnc5[nH]ccc5c4)c3)CC2)=C(c2cc(-c3ccc4c(c3)CCC4(C)O)cs2)C1 (stereo partly drawn) [Example 79, 2-((1H-pyrrolo[2,3-b]pyridin-5-yl)oxy)-4-(4-((2-(4-(1-hydroxy-1-methyl-2,3-dihydro-1H-inden-5-yl)thiophen-2-yl)-4,4-dimethylcyclohex-1-en-1-yl)methyl)piperazin-1-yl)-N-((4-((((1r,4r)-4-hydroxy-4-methylcyclohexyl)methyl)amino)-3-nitrophenyl)sulfonyl)benzamide] | 170 nM | 11 nM | 15.8 nM
CC1(C)CCC(CN2CCN(c3ccc(C(=O)NS(=O)(=O)c4ccc(NC[C@H]5CC[C@](C)(O)CC5)c([N+](=O)[O-])c4)c(Oc4cnc5[nH]ccc5c4)c3)CC2)=C(c2cc(-c3c(F)ccc(F)c3F)cs2)C1 [Example 54, 2-((1H-pyrrolo[2,3-b]pyridin-5-yl)oxy)-4-(4-((4,4-dimethyl-2-(4-(2,3,6-trifluorophenyl)thiophen-2-yl)cyclohex-1-en-1-yl)methyl)piperazin-1-yl)-N-((4-((((1r,4r)-4-hydroxy-4-methylcyclohexyl)methyl)amino)-3-nitrophenyl)sulfonyl)benzamide] | 270 nM | 7 nM | 22.8 nM
CC1(C)CCC(CN2CCN(c3ccc(C(=O)NS(=O)(=O)c4ccc(NC[C@H]5COCCO5)c([N+](=O)[O-])c4)c(Oc4cnc5[nH]ccc5c4)c3)CC2)=C(c2cc(-c3ccc(Cl)cc3F)cs2)C1 [Example 44, (S)—N-((4-(((1,4-dioxan-2-yl)methyl)amino)-3-nitrophenyl)sulfonyl)-2-((1H-pyrrolo[2,3-b]pyridin-5-yl)oxy)-4-(4-((2-(4-(4-chloro-2-fluorophenyl)thiophen-2-yl)-4,4-dimethylcyclohex-1-en-1-yl)methyl)piperazin-1-yl)benzamide] | 830 nM | 31 nM | 31 nM
CC1(C)CCC(CN2CCN(c3ccc(C(=O)NS(=O)(=O)c4ccc(NC[C@H]5COCCO5)c([N+](=O)[O-])c4)c(Oc4cnc5[nH]ccc5c4)c3)CC2)=C(c2cc(-c3ccc(C(F)(F)F)cc3)cs2)C1 [Example 40, (S)—N-((4-(((1,4-dioxan-2-yl)methyl)amino)-3-nitrophenyl)sulfonyl)-2-((1H-pyrrolo[2,3-b]pyridin-5-yl)oxy)-4-(4-((4,4-dimethyl-2-(4-(4-(trifluoromethyl)phenyl)thiophen-2-yl)cyclohex-1-en-1-yl)methyl)piperazin-1-yl)benzamide] | 3550 nM | 45 nM | 40.2 nM
